Laboratory results as given in US20160038435A1 (Teva Pharmaceutical Industries Ltd., priority 2013, published 2016).
Converted amounts (≈) assume the structure as drawn. Counter-ions that a name gives are not always drawn.

How the values were obtained:
[1] = Saturation solubilities in solvents; assay type: physicochemical
Procedure: Saturation solubilities were measured in solvents typically used for incorporating of the drug into the pressure sensitive adhesives (PSA). Additional solubilities were measured in water, Phosphate buffered saline (PBS) Buffer (acceptor medium for skin permeation) and three different donor medium. All solubilities were measured at room temperature.

[2] = Concentration of saturated donor solutions applied onto the skin; assay type: physicochemical
[3] = tested on: genes related to antigen presentation; details: mainly via the NFkB pathway; cited from earlier work

SMILES: CCN(C(=O)c1c(O)c2c(Cl)cccc2n(C)c1=O)c1ccccc1 [Laquinimod free acid]
- Solubility ([1]; 2-Propanol, room temperature): 1662 µg/mL (≈ 4.66 mM)
- Solubility ([1]; Acetone, room temperature): 4884 µg/mL (≈ 13.7 mM)
- Solubility ([1]; Ethanol, room temperature): 4098 µg/mL (≈ 11.5 mM)
- Solubility ([1]; Ethanol/Dodecanol (95:5), room temperature): 4209 µg/mL (≈ 11.8 mM)
- Solubility ([1]; Ethanol/Oleic acid (85:15), room temperature): 4785 µg/mL (≈ 13.4 mM)
- Solubility ([1]; Ethylacetate, room temperature): 3909 µg/mL (≈ 11 mM)
- Solubility ([1]; PBS pH 7.4, room temperature): 1296 µg/mL (≈ 3.63 mM)
- Solubility ([1]; Propylenglycol/water (80:20), room temperature): 1281 µg/mL (≈ 3.59 mM)
- Solubility ([1]; Water, room temperature): 24 µg/mL (≈ 0.0673 mM)
- Solubility ([1]; n-Heptane, room temperature): 0.6 µg/mL (≈ 0.00168 mM)
- c of saturated solution ([2]; EtOH/Dodecanol 95/5, saturated solution containing solid API): 3.49 mg/mL
- c of saturated solution ([2]; EtOH/Oleic acid 85/15, saturated solution containing solid API): 3.93 mg/mL
- c of saturated solution ([2]; Propylene glycol (PG)/water 8/2, saturated solution containing solid API): 1.22 mg/mL

SMILES: CCN(C(=O)c1c(O)c2c(Cl)cccc2n(C)c1=O)c1ccccc1 [Laquinimod Sodium Salt, Laquinimod sodium]
- c of saturated solution ([2]; EtOH/Dodecanol 95/5, saturated solution containing solid API, listed as Laquinimod-Na): 1.17 mg/mL
- c of saturated solution ([2]; EtOH/Oleic acid 85/15, saturated solution containing solid API, listed as Laquinimod-Na): 4.30 mg/mL
- c of saturated solution ([2]; Propylene glycol (PG)/water 8/2, saturated solution containing solid API, listed as Laquinimod-Na): 10.00 mg/mL

SMILES: CCN(C(=O)c1c(O)c2c(Cl)cccc2n(C)c1=O)c1ccccc1 [laquinimod]
- effect on genes related to antigen presentation and inflammatory pathways [3]: induced suppression of genes related to antigen presentation and corresponding inflammatory pathways
